{"source": "patent US12582696B2", "about": "“Debaryomyces species as an indicator of non-healing ulcers in Crohn's disease” (Washington University, priority 2019, dated 2026)", "key": {"[1]": {"system": "mucosal wounds in the distal colon of mice", "experiment": "colonic biopsy injury model, mucosal wound repair in VNAM-treated mice", "type": "in vivo", "settings": "day 12 post-injury", "source_text": "To test the role of microbes in mucosal wound repair, a biopsy injury model was used where the timing and site of injuries are known in each experiment. Wound repair in this model occurs in distinct phases. Barrier re-establishment begins immediately upon injury and lasts for 4 days, and is characterized by the formation of wound associated epithelial (WAE) cells that cover the denuded mucosa. Wound channel formation phase (day 4-day 8), involves extensive proliferation of epithelial cells in crypts adjacent to the wound, forming channels that emanate towards the center of the wound. These two phases culminate in the formation of new crypts that is complete within 12 days post-injury.\nC57BL6 WT were purchased from Jackson Laboratories (Bar Harbor, ME) or Taconic Biosciences and acclimatized in a specific pathogen-free facility for 1 week before conducting any experiment. […]\n(§1) For hematoxylin and eosin (H&E) staining, wounds were collected and embedded in optimum cutting temperature (OCT) formulation (Thermo Fisher Scientific), and 5 μm frozen sections were obtained using a cryostat. […] Images were analyzed using Olympus CellSens Standard imaging software to measure the wound bed length defined as the distance between the two farthest crypts in the center of the wound bed. 2-3 wounds per mouse were analyzed and wound bed lengths were averaged to obtain one value per mouse. […]"}, "[2]": {"system": "fungi", "experiment": "fungi in colonic wounds of biopsy-injured mice (ITS qPCR, anti-fungal antibody staining, ITS sequencing, SDA culture)", "type": "in vivo", "settings": "VNAM-treated mice; amphotericin B orally once daily from 3 days before injury to day 6 post-injury", "method": "Quantitative PCR was performed on the mice of Ex. 4 to identify fungal microbiota within the intestinal wounds. About three fecal pellets or 10-50 mg samples of intestinal tissue were resuspended in Tris buffer supplemented with 1000 U/ml of lyticase (Sigma), 1 mM EDTA, and 0.2% β-mercaptoethanol (Sigma). DNA was extracted using either the DNeasy PowerLyzer PowerSoil kit (Qiagen) or DNA mini stool extraction kit (Qiagen) according to manufacturer's instructions.\nQuantitative PCR was performed using SYBR Green (Roche) or SYBR Green Jumpstart Taq Ready mix (Sigma) on an Eppendorf Mastercycler (Eppendorf) using the following primers as described previously (23, 42, 52)—Saccharomyces cerevisiae: forward (5′-[…]-3′, SEQ ID NO:3), reverse (5′-[…]-3′, SEQ ID NO:4), Candida tropicalis: forward (5′-[…]-3′, SEQ ID NO:5), reverse (5′-[…]-3′, SEQ ID NO:6), Debaryomyces hansenii: forward (5′-[…]—3′, SEQ ID NO:7), reverse (5′-[…]-3′, SEQ ID NO:8) and ITS1-2: forward (5′-[…]-3′, SEQ ID NO:9), reverse (5′-[…]-3′, SEQ ID NO:10). The following conditions were used: 94° C. for 10 minutes, followed by 40 cycles of 94° C. for 30 seconds, 55° C. for 30 seconds, and 72° C. for 2 minutes, ending with 72° C. for 30 minutes. […]"}, "[3]": {"system": "D. hansenii", "experiment": "biopsy injury model in WT mice gavaged with D. hansenii CDA1 (human clinical isolate)", "type": "in vivo", "settings": "WT mice gavaged with D. hansenii CDA1 with or without amphotericin B; day 12 post-injury", "method": "For inoculation experiments, yeasts were expanded in Sabouraud dextrose agar (SDA) for 2-4 days at 30° C. prior to gavage. Mice were gavaged with pure culture of D. hansenii (obtained from the wounds of antibiotic-treated mice or inflamed tissues of Crohn's disease) or Saccharomyces cerevisiae (ATCC) at ˜10^6 CFU/mouse, unless otherwise stated, in 150 μl of PBS. Controls received PBS only. For all inoculation experiments, gavage occurred 2 days before injury, on the day of injury, and 2, 4, and 6 days post-injury unless otherwise stated.\nTo ascertain whether human clinical isolates of D. hansenii were capable of inducing repair defects, the following experiments were conducted. WT mice were gavaged with D. hansenii CDA1 (Table 3) using methods similar to those described above. The CDA isolate was associated with impaired crypt regeneration in the biopsy injury model, and this effect was reversed by amphotericin B treatment (FIG. 11G, I)."}, "[4]": {"system": "mucosal wounds in the distal colon of mice", "experiment": "biopsy injury model in WT mice without VNAM or D. hansenii gavage", "type": "in vivo", "settings": "amphotericin B in the absence of D. hansenii gavage and VNAM; day 12 post-injury", "source_text": "C57BL6 WT were purchased from Jackson Laboratories (Bar Harbor, ME) or Taconic Biosciences and acclimatized in a specific pathogen-free facility for 1 week before conducting any experiment. Biopsy forceps and a miniaturized colonoscope system (Karl Storz) were used to create mucosal wounds in the distal colon of mice as described previously. Briefly, mice were anesthetized using ketamine/xylazine and stool pellets were removed from the colon by flushing with PBS. Next, 3 French biopsy forceps were inserted into the colon and 3-5 thickness areas of mucosa and submucosa were removed under the guidance of an endoscopy camera. Biopsy injured mice were euthanized, and wounds were collected on days 4, 6, 8, and 12 to evaluate healing. Biopsy injury was performed by investigators blinded to the treatments.\nas §1"}, "[5]": {"system": "Debaryomyces sp.", "experiment": "mini screen with known water-soluble antifungals (MIC, dose-response)", "type": "cell-based"}, "[6]": {"system": "PGE2", "experiment": "wound PGE2 levels in VNAM administered, biopsy injured mice", "type": "in vivo", "settings": "day 6 post-injury, NS-398 vs vehicle, p<0.01", "method": "Antibiotic-treated (VNAM) mice received the following cocktail for 4 weeks prior to biopsy injury until the day of sacrifice in drinking water: 0.5 g/L Vancomycin, 1 g/L Neomycin, 1 g/L Ampicillin, 1 g/L Metronidazole, and 1 g/L Kool-aid. Control mice received Kool-aid alone. Mice were treated with VNAM in the following figures: FIG. 8A-F, FIG. 9A-E, FIG. 12A-D, FIG. 13, FIG. 14, and FIG. 19A. […]"}}, "data": [{"smiles": "C[C@@H]1[C@H](O)[C@@H](C)/C=C/C=C/C=C/C=C/C=C/C=C/C=C/[C@H](O[C@@H]2O[C@H](C)[C@@H](O)[C@H](N)[C@@H]2O)C[C@@H]2O[C@](O)(C[C@@H](O)C[C@@H](O)[C@H](O)CC[C@@H](O)C[C@@H](O)CC(=O)O[C@H]1C)C[C@H](O)[C@H]2C(=O)O", "note": "[amphotericin B]", "values": [{"measurement": "crypt regeneration (wound bed length)", "setting": "[1]; VNAM-treated mice, amphotericin B orally", "value": "reversed the crypt regeneration defects"}, {"measurement": "fungal antigen detection in the wounds", "setting": "[2]", "value": "reduced fungal antigen detection"}, {"measurement": "impaired crypt regeneration caused by D. hansenii CDA1 (wound bed length)", "setting": "[3]", "value": "reversed"}, {"measurement": "repair of WT mice (wound bed length)", "setting": "[4]", "value": "did not demonstrate any obvious defects in repair"}]}, {"smiles": "CC[C@H](C)C[C@H](C)CCCCCCCCC(=O)N[C@H]1C[C@@H](O)[C@@H](NCCN)NC(=O)[C@@H]2[C@@H](O)CCN2C(=O)[C@H]([C@H](O)CCN)NC(=O)[C@H]([C@H](O)[C@@H](O)c2ccc(O)cc2)NC(=O)[C@@H]2C[C@@H](O)CN2C(=O)[C@H]([C@@H](C)O)NC1=O", "note": "[caspofungin]", "values": [{"measurement": "MIC", "setting": "[5]; Debaryomyces", "value": 0.62, "unit": "µg/mL"}, {"measurement": "effectiveness compared to azoles in the antifungal screen", "setting": "[5]; against Debaryomyces sp., water-soluble antifungals", "value": "most effective at lowest concentrations"}]}, {"smiles": "CS(=O)(=O)Nc1ccc([N+](=O)[O-])cc1OC1CCCCC1", "note": "[NS-398]", "values": [{"measurement": "wound bed length, NS-398 vs vehicle", "setting": "[1]; VNAM pre-treated mice, NS-398 2.5 mg/kg i.p. twice daily days 4-10", "value": "not significant"}, {"measurement": "wound PGE2 levels", "setting": "[6]", "value": "ablation of PGE2"}]}]}
